Assay results as given in patent publication US20110182954A1, “ORALLY-ADMINISTERED AGENT” (LINTEC Corporation, priority 2008, published 2011).

Assay: Viscosity of aqueous solution of constituent material (E-type viscometer)
Assay type: physicochemical
Settings: for Water absorption promoter, Viscosity: aqueous solution of 5 mass % at 37° C., Examples 1-3, 7, 10-12 glycerin, other Examples the promoter other than glycerin; for Antiadhesive agent, Viscosity: aqueous solution of 5 mass % of the antiadhesive agent at 37° C.
Experimental: Tables 1 and 2 shown the constituent materials of the intestinal collapse-controlling layer, the gel-forming layer and the antiadhesive layer of the orally-administered agents obtained in the respective Examples and the respective Comparative Examples and the contents thereof. […] Furthermore, the viscosity of the water absorption promoter in the Table 1 and the viscosity of the antiadhesive agent in the Table 2 denote a viscosity at 37° C. of an aqueous solution of 5 mass % of the water absorption promoter and the antiadhesive agent, respectively. Each viscosity was measured with an E-type viscometer (a product of Tokimec, Inc.).

| Compound | Water absorption promoter, Viscosity | Antiadhesive agent, Viscosity |
| --- | --- | --- |
| OC[C@@H](O)[C@H](O)[C@@H](O)CO [Xyl, xylitol] | 1.08 mPa · s | 0.87 mPa · s |
| OC[C@@H](O)[C@@H](O)[C@H](O)[C@H](O)CO [Man, mannitol] | 0.87 mPa · s | 0.87 mPa · s |
